In patent publication EP2487171A1, “Dihydrobenzopyran, thiochroman, tetrahydroquinoleine and tetrahydronaphthalene derivatives and their use in anti-cancer therapy” (Université de Liège, priority 2011, dated 2012):

Experiments:
U373 = assay: MTT colorimetric assay, overall cell growth; type: cell-based; details: Homo sapiens, U373 MG; U373 cells, 72 hours of incubation; read-out: IC50 (µM) In Vitro Growth Inhibitory Concentrations (MTT Colorimetric Assay) U373
Protocol: (§2) The compounds and particularly dihydrobenzopyran, thiochroman, tetrahydroquinoleine and tetrahydronaphthalene derivatives of the invention were evaluated for their anti-proliferative effect (by means of the colorimetric MTT assay), in the following human glioblastoma cell-lines U373, T98G and Hs683 and in the mouse glioma cell line GL261. Normal brain cells (primocultures from newborn mice) were also used in order to determine the bioselectivity (B^N/C) of the compounds of interest, i.e. the ratio between the concentrations that inhibits 50% of the growth of brain cancer (C) cells (glioma cells) and the concentration that inhibits 50% of the growth of normal (N) brain cells (primocultures of astrocytes). The ideal situation to be reached is a bioselectivity of B^N/C > 10.
(§3) MTT tests were performed in order to rapidly, i.e. within 5 days, measure the effect of compounds of this invention on the overall cell growth. The test measured the number of metabolically active living cells that were able to transform the yellow product 3-(4,5-dimethylthiazol-2-yl)-2,5-diphenyl tetrazolium bromide (herein referred as MTT) into the blue product formazan dye by mitochondrial reduction. The amount of formazan obtained at the end of the experiment, measured by means of a spectrophotometer, is directly proportional to the number of living cells. Optical density determination thus enabled a quantitative measurement of the effect of the investigated compounds as compared to the control condition (untreated cells) and/or to other reference compounds.
(§4) Three human cancer cell lines were used in the following MTT tests.
(§5) To perform the assay, cells were allowed to grow in 96-well micro-wells with a flat bottom with an amount of 100 µl of cell suspension per well with 1,000 to 8,000 cells/well depending on the cell type used. Each cell line was seeded in its appropriate culture medium.
(§6) The detailed experimental procedure was the following: after a 24-hour period of incubation at 37°C, the culture medium was replaced by 100 µl of fresh medium in which the tested compound was previously dissolved, at the following molar concentrations: 10^-8 M, 5.10^-8 M, 10^-7 M, 5.10^-7 M, 10^-6 M, 5.10^-6 M, 10^-5 M, 5.10^-5 M and 10^-4 M. Each experiment was performed in sextuplicate (6 times).
(§7) After 72 hours of incubation at 37°C with (experimental conditions) or without (control condition) the compound to be tested, the medium was replaced by 100 µl MTT dissolved in RPMI (1640 without phenol red) at a concentration of 0.5 mg/ml. The micro-wells were subsequently incubated during 3 hours and a half at 37°C and centrifuged at 1300 rpm during 10 minutes. MTT was removed and formazan crystals formed were dissolved in 100 µl DMSO. The micro-wells were shaken for 5 minutes and read on a spectrophotometer at wavelengths of 570 nm (maximal formazan absorbance).
(§8) For each experimental condition, the mean optical density was calculated, allowing the determination of the percentage of remaining living cells in comparison to the control.

Hs683 = assay: MTT colorimetric assay, overall cell growth; type: cell-based; details: Homo sapiens, Hs 683; Hs683 cells, 72 hours of incubation; read-out: IC50 (µM) In Vitro Growth Inhibitory Concentrations (MTT Colorimetric Assay) Hs683
Protocol: as §2, §3, §4, §5, §6, §7, §8

[1] = system: three Human Glioma Cell Lines; assay: MTT colorimetric assay, mean over the three glioma cell lines; type: cell-based; details: mean of the three human glioma cell lines, 72h (Table 2); read-out: Mean IC50 MTT values ± SEM (µM) Glioma - Human Brain cancer cells (I - 72h)
Protocol: (§1) Table 2: Bioselectivity determined by dividing the IC50 obtained with glioma cell lines by the IC50 obtained with normal astrocytes. Bioselectivity was determined only for those compounds whose mean + SEM values on the three human glioma cell lines were ≤ 20 µM.

[2] = system: Astrocytes - Mouse normal brain cells; assay: MTT colorimetric assay on normal astrocytes (bioselectivity); type: cell-based
Protocol: as §1

[3] = system: human U373 glioma cell line; assay: Quantitative videomicroscopy (computer-assisted phase-contrast microscopy); type: cell-based; details: U373 cells treated at the IC50 concentration from MTT, filmed for 72h; cytostatic versus cytotoxic effects
Excerpt: In addition, the inventors could establish that the compounds of the invention act through a non-apoptosis-related mechanism thanks to a unique experimental approach used by the inventors, i.e. computer-assisted phase-contrast microscopy (quantitative videomicroscopy), making them good candidates as anti-cancer drugs for treating apoptosis-resistant tumor or cancer cells and for overcoming problems linked to the known anti-cancer drugs.
As the MTT test is based on the mitochondria functions, we also investigated the effects of the compounds according to the invention on cell proliferation, migration and morphology by means of a cellular imaging approach (Debeir et al., Cytometry 60:29-40, 2004; Debeir et al., IEEE Trans Med Imaging 24:697-711, 2005) in the human U373 glioma cell line, which is apoptosis-resistant but autophagy-sensitive (Lefranc F et al., Neurosurgery 2008).
Cellular imaging relied on the use of computer-assisted phase-contrast microscopy making possible to film the behaviour of living cells in culture dishes for several days.
Cells were seeded in a 25-cm^2 flask at a low density, treated or not with the compounds of the invention (at their IC50 concentration determined previously by MTT tests) and filmed thereafter for a period of 72h. The experiment was conducted in triplicate.
The behaviour of the cells, in terms of morphology, growth and death were thus investigated. The effect on the overall growth was measured by counting the number of cells on the first (0h) and the last image (72h) of each film. The global growth ratio (GGR) was then deduced by dividing the number of cells on the last image by the number of cells on the first image. The ratio GGRtreated cells / GGRcontrol cells, was further calculated thereby obtaining a value that describes the effect of compounds of the present invention on the overall cell growth.
The methodology is fully described and validated in Debeir et al., 2008, Exp Cell Res 314:2985-2998 and Mathieu et al., 2009, J Cell Mol Med, Feb 20, 2009.
Thanks to the quantitative videomicroscopy (QVM) approach, we classified the compounds into 4 distinctive classes on the basis of their cytostatic versus cytotoxic effects (Table 3). • Class I: actually cytostatic for 3 days (< 10 % of cell death at the 3rd day) • Class II: cytostatic but becomes cytotoxic with < 10% cell death on the 2nd day and > 20% of cell death on the 3rd day • Class III: cytostatic but rapidly becomes cytotoxic with < 10% cell death on the 1st day, > 20% of cell death on the 2nd day and > 50% of cell death on the 3rd day • Class IV: cytotoxic (> 50% of cell death on the first day)
In Fig. 1a, compounds of example 14 (5 µM), example 19 (20 µM) and example 23 (5 µM) belong to QVM Class I because they display cytostatic effects on human U373 GBM cells during the whole duration of the experiment. Cytostatic effects mean that < 10 % of cell death was recorded at the end of the experiment, i.e. at the end of the 3rd day. QVM analyses enable the global growth ratio (GGR) to be calculated in each experiment. The GGR index is obtained by dividing the number of cells in the last image by the number of cells in the first image of the experiment, knowing that 1080 images are taken during the 72 h-period of observation. The ratio GGR^treated cells / GGR^control cells was further calculated thereby obtaining a value that describes the effect of compounds on the overall cell growth. Thus, a GGR index of 0.2 means that they remain only 20% of treated cells compare to the control cells at the end of the experiment.

[4] = system: Astrocytes - Mouse normal brain cells; assay: MTT colorimetric assay on normal astrocytes (bioselectivity); type: cell-based; details: Astrocyte, primocultures of astrocytes from newborn mice, 72h, read-out: Mean IC50 MTT values ± SEM (µM) Astrocytes - Mouse normal brain cells (II - 72h)
T98G = assay: MTT colorimetric assay, overall cell growth; details: Homo sapiens, 72 h, read-out: IC50 (µM) In Vitro Growth Inhibitory Concentrations (MTT Colorimetric Assay) T98G;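 further: growth inhibition of the human glioblastoma line measured by MTT reduction to formazan, optical density read on a spectrophotometer at 570 nm, untreated cells as control, nine concentrations from 10 nM to 100 µM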
Protocol: The compounds and particularly dihydrobenzopyran, thiochroman, tetrahydroquinoleine and tetrahydronaphthalene derivatives of the invention were evaluated for their anti-proliferative effect (by means of the colorimetric MTT assay), in the following human glioblastoma cell-lines U373, T98G and Hs683 and in the mouse glioma cell line GL261. Normal brain cells (primocultures from newborn mice) were also used in order to determine the bioselectivity (B^N/C) of the compounds of interest, i.e. the ratio between the concentrations that inhibits 50% of the growth of brain cancer (C) cells (glioma cells) and the concentration that inhibits 50% of the growth of normal (N) brain cells (primocultures of astrocytes).
as §3, §4, §5, §6
The micro-wells were subsequently incubated during 3 hours and a half at 37°C and centrifuged at 1300 rpm during 10 minutes. MTT was removed and formazan crystals formed were dissolved in 100 µl DMSO. The micro-wells were shaken for 5 minutes and read on a spectrophotometer at wavelengths of 570 nm (maximal formazan absorbance).
as §8

`CC(C)(C)OC(=O)Nc1ccc2c(c1)C(NC(=O)Nc1cccc(C(F)(F)F)c1)CC(C)(C)O2` (racemic) [Example 25, R/S-N-3-trifluoromethylphenyl-N'-(6-tert-butoxycarbonylamino-3,4-dihydro-2,2-dimethyl-2H-1-benzopyran-4-yl)urea] showed an IC50 (U373) of 9 µM, an IC50 (Hs683) of 8 µM and an IC50 [1] of 13 ± 4 µM. For the same molecule, the “Bioselectivity (I / II)” value [2] was less than 2, the “QVM Class” value [3] was “II (Class II: cytostatic but becomes cytotoxic with < 10% cell death on the 2nd day and > 20% of cell death on the 3rd day)” and the IC50 [4] was roughly 20 µM. For the same molecule, the IC50 (T98G) was 21 µM.

`CC(C)(C)OC(=O)Nc1ccc2c(c1)C(NC(=O)Nc1ccc(C(F)(F)F)cc1)CC(C)(C)O2` (racemic) [Example 24, R/S-N-4-trifluoromethylphenyl-N'-(6-tert-butoxycarbonylamino-3,4-dihydro-2,2-dimethyl-2H-1-benzopyran-4-yl)urea] showed an IC50 (U373) of 10 µM, an IC50 (Hs683) of 11 µM and an IC50 [1] of 12 ± 1 µM. For the same molecule, the “Bioselectivity (I / II)” value [2] was greater than 10, the “QVM Class” value [3] was “I (Class I: actually cytostatic for 3 days (< 10 % of cell death at the 3rd day))” and the IC50 [4] was greater than 120 µM. For the same molecule, the IC50 (T98G) was 15 µM.

For `CC(C)(C)OC(=O)Nc1ccc2c(c1)C(NC(=O)Nc1cc(F)cc(F)c1)CC(C)(C)O2` (racemic) [Example 21, R/S-N-3,5-difluorophenyl-N'-(6-tert-butoxycarbonylamino-3,4-dihydro-2,2-dimethyl-2H-1-benzopyran-4-yl)urea], the IC50 (U373) was 6 µM, the IC50 (Hs683) was 7 µM and the IC50 [1] was 9 ± 3 µM. For the same molecule, the “Bioselectivity (I / II)” value [2] was “∼ 5”, the “QVM Class” value [3] was “I (Class I: actually cytostatic for 3 days (< 10 % of cell death at the 3rd day))” and the IC50 [4] was roughly 45 µM. The IC50 (T98G) was 14 µM.

`CC(C)(C)OC(=O)Nc1ccc2c(c1)C(NC(=O)Nc1cccc(C#N)c1)CC(C)(C)O2` (racemic) [Example 14, R/S-N-3-cyanophenyl-N'-(6-tert-butoxycarbonylamino-3,4-dihydro-2,2-dimethyl-2H-1-benzopyran-4-yl)urea] gave an IC50 (U373) of 2 µM, an IC50 (Hs683) of 2 µM and an IC50 [1] of 2 ± 1 µM. The “Bioselectivity (I / II)” value [2] was greater than 10, the “QVM Class” value [3] was “I (Class I: actually cytostatic for 3 days (< 10 % of cell death at the 3rd day))” and the IC50 [4] was greater than 20 µM. For the same molecule, the IC50 (T98G) was 3 µM.

For `CC(C)(C)OC(=O)Nc1ccc2c(c1)C(NC(=O)Nc1c(Cl)cccc1C(F)(F)F)CC(C)(C)O2` (racemic) [Example 32, R/S-N-2-chloro-6-trifluoromethylphenyl-N'-(6-tert-butoxycarbonylamino-3,4-dihydro-2,2-dimethyl-2H-1-benzopyran-4-yl)urea], the IC50 (U373) was 60 µM, the IC50 (Hs683) was 66 µM and the “QVM Class” value [3] was “III (Class III: cytostatic but rapidly becomes cytotoxic with < 10% cell death on the 1st day, > 20% of cell death on the 2nd day and > 50% of cell death on the 3rd day)”. For the same molecule, the IC50 (T98G) was 60 µM.

With `CC(C)(C)OC(=O)Nc1ccc2c(c1)C(NC(=O)Nc1ccc(Cl)cc1)CC(C)(C)O2` (racemic) [Example 17, R/S-N-4-chlorophenyl-N'-(6-tert-butoxycarbonylamino-3,4-dihydro-2,2-dimethyl-2H-1-benzopyran-4-yl)urea] the IC50 (U373) was 22 µM, the IC50 (Hs683) was 26 µM and the “QVM Class” value [3] was “III (Class III: cytostatic but rapidly becomes cytotoxic with < 10% cell death on the 1st day, > 20% of cell death on the 2nd day and > 50% of cell death on the 3rd day)”. It also gave an IC50 (T98G) of 26 µM.

In the case of `CC(C)(C)OC(=O)Nc1ccc2c(c1)C(NC(=O)Nc1ccccc1C#N)CC(C)(C)O2` (racemic) [Example 36, R/S-N-2-cyanophenyl-N'-(6-tert-butoxycarbonylamino-3,4-dihydro-2,2-dimethyl-2H-1-benzopyran-4-yl)urea], the IC50 (U373) is reported as 45 µM, the IC50 (Hs683) is reported as 54 µM and the “QVM Class” value [3] is reported as “I (Class I: actually cytostatic for 3 days (< 10 % of cell death at the 3rd day))”. For the same molecule, the IC50 (T98G) was 67 µM.
